Data as given in PMC9697976, “Giardia lamblia G6PD::6PGL Fused Protein Inhibitors Decrease Trophozoite Viability: A New Alternative against Giardiasis” (International Journal of Molecular Sciences, 2022).
Like-named read-outs stand apart in the source and are kept apart here.

Assays:
G6PD::6PGL fused enzyme [1] = target: T1, G6PD::6PGL fused enzyme (Giardia intestinalis, UniProt A8BWM5); test: Enzymatic inhibition assay (concentration-dependent inactivation) of G6PD::6PGL; assay type: biochemical, Giardia lamblia; conditions: for inhibition at 200 µM: read-out: Loss of initial G6PD::6PGL activity
T1 sequence (A8BWM5 entry or part of it): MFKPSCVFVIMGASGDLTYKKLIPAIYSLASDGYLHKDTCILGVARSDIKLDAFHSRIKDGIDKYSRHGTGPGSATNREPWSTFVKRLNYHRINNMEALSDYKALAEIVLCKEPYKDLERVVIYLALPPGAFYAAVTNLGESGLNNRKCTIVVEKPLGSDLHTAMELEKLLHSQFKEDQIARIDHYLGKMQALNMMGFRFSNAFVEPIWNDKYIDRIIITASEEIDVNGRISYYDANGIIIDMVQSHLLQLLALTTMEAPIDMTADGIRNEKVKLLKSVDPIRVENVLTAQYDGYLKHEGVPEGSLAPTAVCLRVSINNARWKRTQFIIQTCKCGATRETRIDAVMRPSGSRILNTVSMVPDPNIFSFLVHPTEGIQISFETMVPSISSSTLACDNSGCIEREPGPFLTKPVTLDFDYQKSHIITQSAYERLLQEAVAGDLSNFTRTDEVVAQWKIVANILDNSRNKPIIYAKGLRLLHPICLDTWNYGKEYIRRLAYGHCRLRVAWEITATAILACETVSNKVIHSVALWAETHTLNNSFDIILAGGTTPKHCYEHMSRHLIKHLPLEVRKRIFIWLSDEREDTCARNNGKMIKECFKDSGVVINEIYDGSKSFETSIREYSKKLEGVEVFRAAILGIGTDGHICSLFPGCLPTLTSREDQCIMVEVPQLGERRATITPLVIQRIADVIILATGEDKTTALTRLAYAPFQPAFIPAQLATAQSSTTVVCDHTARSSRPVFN
Description: G6PD::6PGL protein was adjusted at 0.2 mg/mL and incubated in the presence of different concentrations of compounds (0–800 μM). After incubation, aliquots were withdrawn from the samples, and the residual activity was determined. The G6PD::6PGL without compounds was used to determine 100% activity. The assays were carried out in triplicate, and the data represent the mean ± standard error.
The IC50 values of the four selected compounds were determined. […] The assay was performed using a protein concentration of 0.2 mg/mL in buffer T (100 mM Tris–HCl, 30 mM MgCl2, pH 8) with different concentrations of the compounds (0 to 800 µM). The protein was incubated at 37 °C for 2 h after the residual activity of the G6PD domain was measured. The data were plotted as percent activity, where 100% was taken as the enzyme’s activity without compounds. All values were adjusted to the Boltzmann sigmoid equation in the Origin 8.0® program (Northampton, MA, USA) to obtain the IC50 value expressed in µM units.

G6PD::6PGL fused enzyme [2] = target: T1, G6PD::6PGL fused enzyme; test: Screening of in-house library on G6PD::6PGL activity at 400 µM; assay type: biochemical, Giardia lamblia
Description: The effects of 120 organic molecules from the in-house chemical library of compounds, which were synthesized in the Medicinal Chemistry Laboratory at the Pharmacy Faculty of the Autonomous University Morelos State, include mainly aromatic and non-aromatic heterocyclic compounds with heteroatoms such as nitrogen, oxygen, and sulfur, which were evaluated as possible specific inhibitors of G6PD::6PGL. The assay was carried out following what was reported by Martinez-Rosas et al.; each compound was dissolved in dimethyl sulfoxide (DMSO), and the recombinant enzyme G6PD::6PGL (0.2 mg/mL) was incubated with the compounds at a concentration of 400 µM, for 2 h, at 37 °C. The residual enzymatic activity of the G6PD domain was measured following the spectrophotometric NADP^+ reduction at 340 nm with the standard reaction mixture. Activity data were plotted as percent residual activity, where 100% activity was taken from enzyme samples incubated without a compound.

HsG6PD [3] = target: T2, HsG6PD (Homo sapiens, UniProt P11413); test: Effect of compounds on HsG6PD activity at 400 µM; assay type: biochemical
T2 sequence (P11413 whole entry): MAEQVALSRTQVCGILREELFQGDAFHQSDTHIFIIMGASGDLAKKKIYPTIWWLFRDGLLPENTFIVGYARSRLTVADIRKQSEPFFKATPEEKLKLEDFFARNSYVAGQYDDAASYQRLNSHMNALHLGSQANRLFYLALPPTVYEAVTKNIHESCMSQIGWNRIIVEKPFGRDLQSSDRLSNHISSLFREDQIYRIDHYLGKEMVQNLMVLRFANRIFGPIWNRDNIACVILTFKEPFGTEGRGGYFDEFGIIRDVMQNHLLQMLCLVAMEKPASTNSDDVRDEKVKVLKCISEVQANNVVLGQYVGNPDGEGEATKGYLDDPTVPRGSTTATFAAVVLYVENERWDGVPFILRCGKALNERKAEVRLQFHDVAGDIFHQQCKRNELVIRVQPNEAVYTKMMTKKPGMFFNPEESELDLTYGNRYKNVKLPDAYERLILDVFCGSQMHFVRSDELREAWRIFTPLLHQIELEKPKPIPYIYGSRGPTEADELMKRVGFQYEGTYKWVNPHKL
Description: Based on the above, we decided to evaluate the effect in vitro of the compounds in the inactivation of the G6PD::6PGL enzyme.

G6PD::6PGL fused enzyme [4] = target: T1, G6PD::6PGL fused enzyme; test: Second-order inactivation constant (k2) of G6PD::6PGL; assay type: biochemical, Giardia lamblia; conditions: for kinact/KI: read-out: Second-order inactivation constant (k2)
Description: At the indicated times, aliquots were withdrawn from the samples and assayed for residual activity. Initial velocity was fitted to determine each compound’s pseudo-first-order inactivation constants (k1). […] All experiments were performed in triplicate.
Inactivation assays were performed to determine the rate of each to form the enzyme–inhibitor complex. First, the pseudo-first-order constants (k1) were obtained by incubating 0.2 mg/mL of pure G6PD::6PGL enzyme and different concentrations of compound (0 to 500 µM) at 37 °C in time intervals (0–120 min). After the incubation period, enzyme activity was measured spectrophotometrically following the reduction of NADP^+ at 340 nm for each experimental condition. The results were expressed in terms of the activity percentage against each compound’s concentration. The residual activity data were fitted to a mono-exponential decay model, using the equation AR=A0 e^−kt , where AR is the residual activity at different times, A0 is the activity at the initial time, and k is the pseudo-first-order inactivation constant (min^−1). Subsequently, the constants obtained were plotted against the corresponding inhibitor concentration. A linear regression model was applied to obtain the second-order inactivation constant k2 (M^−1 s^−1).

HT29 cells [5] = test: In vitro cytotoxicity, XTT assay, HT29; conditions: for Decrease of HT29 cell viability: 250 µM compound; for Selectivity index (SI), CC50 HT29 / IC50 G. lamblia: ratio of CC50/IC50 between mammalian cells and trophozoites
Description: (§1) An XTT cell proliferation assay determined the viability.
(§2) The cytotoxicity assay was performed using human cell lines Caco-2 (ATCC HTB-37) and HT29 (ATCC HHTB-38) with a Cell Proliferation Kit II (XTT; St Louis, MO, USA). A cell suspension of 2 × 10^5 cells/mL was prepared in Dulbecco’s modified Eagle’s (DMEM) medium, supplemented with 10% inactivated fetal bovine serum and 1% penicillin/streptomycin (5000 U/mL), and 100 µL portions of the suspension were added to the wells of 96-well plates. The plates were incubated for 24 h at 37 °C in an atmosphere of 5% CO2. The medium in each well was replaced with 100 µL medium with compounds at 500, 250, 150, 75, 32, and 16 µM. After 48 h of incubation at 37 °C in an atmosphere of 5% CO2, the viability of cells was determined. The medium in each well was gently replaced with 100 µL of fresh medium, 50 µL of XTT labeling mixture was added per well, the mixture was incubated for four h at 37 °C and 5% CO2, and the absorbance at 495 nm was measured. Each compound was assayed in triplicate via three independent experiments. The CCI50 values were determined using the nonlinear regression function of GraphPad Prism version 6.04 for Windows.

Caco-2 cells [6] = test: in vitro; conditions: 250 µM compound
Description: as §1, §2

G. lamblia trophozoites = test: Antigiardial activity, trophozoite viability (trypan blue); assay type: cell-based; conditions: Giardia duodenalis, 48 h, read-out: IC50 G. lamblia (trophozoite viability)
Description: The trophozoites were incubated in the presence of compounds for 48 h at 37 °C with increasing concentrations of each of the compounds, and later the viability of the trophozoites was determined. The values represent mean ± standard deviation from three independent experiments, and standard errors of the mean were lower than 5%.
The Giardia lamblia WB strain (ATCC number 30957) was grown and cultivated in a modified TYI-S-33 medium supplemented with 10% fetal bovine serum at 37 °C. G. lamblia was harvested from a confluent culture by chilling the tubes on ice for 5–10 min to detach cells, followed by centrifugation at 800× g for 5 min. For the antigiardial activity assay, 5 × 10^4 trophozoites of G. lamblia were incubated with different concentrations of the compounds (31, 62, 125, 250, and 500 µM) in a final volume of 1.5 mL and then incubated for 48 h at 37 °C. After incubation, 75 µL of the treated trophozoites were subcultured individually for another 48 h in a fresh medium without compounds. At the end of this period, the viable trophozoites were counted using trypan blue. Each compound was assayed in three independent experiments. Appropriate controls were tested in each assay, including a sample without compounds and another with only 2% DMSO.

[7] = In vitro cytotoxicity, XTT assay, HT29; conditions: human
Description: as §1, §2

in vitro = conditions: human, Caco-2
Description: as §1, §2

HsG6PD [8] = target: T2, HsG6PD; parameters: method as in earlier work; conditions: ref 24 (Ramirez-Nava et al.); cited from earlier work
Caco-2 cells [9] = conditions: cited from earlier work
HT29 cells [10] = conditions: nitazoxanide; cited from earlier work
[11] = read-out: G6PD::6PGL Inhibition (%) at (400 μM)
[12] = read-out: G6PD::6PGL IC50, 0.2 mg/mL enzyme, 0–800 μM compound, 2 h, 37 °C
[13] = 400 μM compound, read-out: HsG6PD Inhibition (%) at (400 μM)
[14] = read-out: G6PD::6PGL Inhibition (%) at (400 μM), 400 μM compound, 0.2 mg/mL enzyme, 2 h, 37 °C

With O=C1CC(=O)NC(=O)N1 [Barbituric acid, reference compound] the IC50 (G6PD::6PGL fused enzyme [1]) was > 500 µM and the inhibition at 400 µM (G6PD::6PGL fused enzyme [2]; [11]) was 0%.
With O=C1NC(=O)C(=Cc2ccc(OCc3ccccc3)cc2)C(=O)N1 [CMC-1] the IC50 (G6PD::6PGL fused enzyme [1]) was 70 µM, the inhibition at 200 µM (G6PD::6PGL fused enzyme [1]; 2 h) was 100% and the inhibition at 400 µM (HsG6PD [3]; read-out: HsG6PD Inhibition (%) at (400 μM), 400 μM compound) was ~34%. For the same compound, the “Second-order inactivation constant (k2)” value (G6PD::6PGL fused enzyme [4]; 0.2 mg/mL enzyme, 37 °C, 0–120 min) was 0.97 M⁻¹ s⁻¹, the “Decrease of HT29 cell viability” value (HT29 cells [5]) was 25% and the “Decrease of Caco-2 cell viability” value (Caco-2 cells [6]) was “approximately 20%”. The IC50 (G. lamblia trophozoites) was 24.1 µM and the inhibition at 400 µM (G6PD::6PGL fused enzyme [2]; [11]) was 98%.
CCCCOc1ccc(NC(=O)Nc2nc([N+](=O)[O-])cs2)cc1 [CNZ-7] gave an inhibition at 200 µM (G6PD::6PGL fused enzyme [1]; 2 h) of 60%, an IC50 (G6PD::6PGL fused enzyme [1]; [12]) of 150 µM and an inhibition at 400 µM (HsG6PD [3]; [13]) of 68%. The kinact/KI (G6PD::6PGL fused enzyme [4]) was 0.97 M⁻¹ s⁻¹, the CC50 at 48 h ([7]; HT29 cells) was 529 µM and the “Decrease of HT29 cell viability” value (HT29 cells [5]) was 25%. The “Selectivity index (SI), CC50 HT29 / IC50 G. lamblia” value (HT29 cells [5]) was 60, the “Decrease of Caco-2 cell viability” value (Caco-2 cells [6]) was “approximately 20%” and the CC50 at 48 h (in vitro) was 640 µM. The selectivity ratio at 48 h (in vitro) was 74, the IC50 (HsG6PD [8]) was 274 µM and the IC50 (G. lamblia trophozoites; 37 °C, WB strain) was 8.7 µM. It also gave an inhibition at 400 µM (G6PD::6PGL fused enzyme [2]; [14]) of 85%.
Compound O=C(Nc1ccc([N+](=O)[O-])cc1)Nc1nc([N+](=O)[O-])cs1 [CNZ-8] has an inhibition at 200 µM (G6PD::6PGL fused enzyme [1]; 2 h) of 80%, an IC50 (G6PD::6PGL fused enzyme [1]; [12]) of 80 µM and an inhibition at 400 µM (HsG6PD [3]; [13]) of 43%. For the same compound, the kinact/KI (G6PD::6PGL fused enzyme [4]) was 0.6 M⁻¹ s⁻¹, the CC50 at 48 h [7] was 622 µM and the “Decrease of HT29 cell viability” value (HT29 cells [5]) was 25%. For the same compound, the “Selectivity index (SI), CC50 HT29 / IC50 G. lamblia” value (HT29 cells [5]) was 41, the “Decrease of Caco-2 cell viability” value (Caco-2 cells [6]) was “approximately 20%” and the CC50 at 48 h (in vitro) was 633 µM. The selectivity ratio at 48 h (in vitro) was 41, the IC50 (G. lamblia trophozoites; 37 °C, WB strain) was 15.2 µM and the inhibition at 400 µM (G6PD::6PGL fused enzyme [2]; [14]) was 75%.
With CCCCCC(=O)Nc1nc([N+](=O)[O-])cs1 [FLP-2] the inhibition at 200 µM (G6PD::6PGL fused enzyme [1]; 2 h) was 40%, the IC50 (G6PD::6PGL fused enzyme [1]; [12]) was 256 µM and the inhibition at 400 µM (HsG6PD [3]; [13]) was ~20%. For the same compound, the kinact/KI (G6PD::6PGL fused enzyme [4]) was 0.82 M⁻¹ s⁻¹, the CC50 at 48 h ([7]; HT29 cells) was 1910 µM and the “Selectivity index (SI), CC50 HT29 / IC50 G. lamblia” value (HT29 cells [5]) was 125. For the same compound, the CC50 at 48 h (in vitro) was 3180 µM, the selectivity ratio at 48 h (in vitro) was 208 and the IC50 (G. lamblia trophozoites; 37 °C, WB strain) was 15.3 µM. It also gave an inhibition at 400 µM (G6PD::6PGL fused enzyme [2]; [14]) of 89%.
In the case of Cc1ncc([N+](=O)[O-])n1CCO [Metronidazole, reference compound], the “CC50 Caco-2 (literature IC50)” value (Caco-2 cells [9]; metronidazole) is listed as 19 µM and the IC50 (G. lamblia trophozoites; 37 °C, WB strain) is listed as 4.8 µM.
For CC(=O)Oc1ccccc1C(=O)Nc1ncc([N+](=O)[O-])s1 [Nitazoxanide, reference compound], the IC50 (G6PD::6PGL fused enzyme [1]) is listed as 78 µM, the “CC50 HT29 (literature IC50)” value (HT29 cells [10]) is listed as > 50 µM and the “Selectivity index (SI), CC50 HT29 / IC50 G. lamblia” value (HT29 cells [5]) is listed as 12. The “CC50 Caco-2 (literature IC50)” value (Caco-2 cells [9]; nitazoxanide) was 26.8 µM, the selectivity ratio at 48 h (in vitro) was 7 and the IC50 (G. lamblia trophozoites) was 4.2 µM. It also gave an inhibition at 400 µM (G6PD::6PGL fused enzyme [2]; [14]) of 100%.
